Data on ten substances can be found in patent publication US8354522B2, “Immunostimulatory oligoribonucleotides” (Coley Pharmaceutical GmbH, priority 2005, dated 2013).

In one data set the test system is Bovine PBMC. In words: Cytokine production by bovine PBMC (48 hours, ELISA). The class given is cell-based. Conditions: 10 μg/ml (H.D.) and 2.5 μg/ml (L.D.). The procedure: FIG. 11 is a set of bar graphs showing differences between TLR8 ORN (SEQ ID NO:13) and TLR7/8 ORN (SEQ ID NO:21). SEQ ID NO:5 ORN was used as a control. Bovine PBMC were incubated with either 10 μg/ml ORN (HD) or 2.5 μg/ml ORN (LD) for 48 hours. Supernatants were collected and analyzed by ELISA. FIGS. 11a-c show the level of IL-12, IFN-γ, and TNF-alpha, respectively.
The assay was repeated with a TLR8 ORN (SEQ ID NO:13), a TLR 7/8 ORN (SEQ ID NO:21) and a control ORN (SEQ ID NO:5) (Table 3) at both a high dose (H.D., 10 μg/ml) and a low dose (L.D., 2.5 μg/ml).
Background: ELISA stands for enzyme-linked immunosorbent assay.

The subject of a further data set is Human PBMC. In words: Cytokine production upon human PBMC stimulation (ORN complexed to DOTAP, 16 h, ELISA). The class given is cell-based. Further details: key to IFN-alpha / TNF-alpha: +: cytokine production; −: no cytokine production. Conditions: for IFN-alpha / TNF-alpha: human PBMC stimulated for 16 h, supernatant ELISA; for EC50 / IFN-alpha max activity / TNF-alpha max activity: ORN complexed to DOTAP, 16 h; for EC50: full titration 2 μM to 0.9 nM; for IFN-alpha max activity / TNF-alpha max activity: mean max activity at 0.6 μM, 3-6 blood donors. A digest of the protocol:
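Healthy-donor PBMCs were stimulated for 16 h with ORN complexed to DOTAP (25 μg/ml), titrated in 7 steps of 1/3 from 2 μM (to 0.9 nM). IFN-alpha and TNF-alpha in supernatants were measured by ELISA. Mean/max activity at 0.6 μM and EC50 came from 3-6 donors over two experiments.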

Another data set deals with isolated pDC. In words: IFN-alpha production upon isolated pDC stimulation. The class given is cell-based, human. Conditions: 0.5 μM ORN complexed to 10 μg/ml DOTAP, 16 h. The procedure:
FIG. 2 is a set of bar graphs depicting ORN induced cytokine production upon isolated pDC (FIG. 2a), monocytes (FIG. 2b) and mDC (FIG. 2c) stimulation. Cells were stimulated with 0.5 μM ORN complexed to 10 μg/ml DOTAP, 0.5 μM CpG ODN or DOTAP or media alone and IFN-alpha (FIG. 2a), TNF-alpha […] and IL-12p40 (FIG. 2c) were measured.
A similar assay testing different ORN sequences was performed using isolated pDC, monocytes and mDC stimulation. Cells were stimulated with 0.5 μM ORN complexed to 10 μg/ml DOTAP, 0.5 μM CpG ODN or DOTAP or media alone. After 16 h the supernatants were harvested and IFN-alpha, TNF-alpha and IL-12p40 levels were measured by ELISA.

[1] abbreviates: human PBMC, read-out: IFN-alpha EC50.
[2] abbreviates: human PBMC, read-out: TNF-alpha EC50.

Like-named read-outs stand apart in the source and are kept apart here.

In the case of “C*C*G*U*C*U*G*U*U*G*U*G*U*G*A*C*U*C (CCGUCUGUUGUGUGACUC; listed as RNA, chemistry not fully specified) [SEQ ID NO: 5, reference compound]”, in the data set with Bovine PBMC, the IFN-γ production entry is “stimulated production of IFN-γ”.
Turning to “A*U*A*U*A*U*A*U*A*U*A*U*A*U*A*U*A*U*A*U (AUAUAUAUAUAUAUAUAUAU; chemistry not fully specified) [SEQ ID NO: 12]”, the “IFN-alpha production upon PBMC stimulation (in words)” value in the data set with Human PBMC (human PBMC) is recorded as “no IFN-alpha cytokine production”. Moreover, in the data set with Human PBMC, the IFN-alpha entry was “−” and the TNF-alpha entry was “+”. For the same substance, in the data set with isolated pDC, the “IFN-alpha production upon pDC stimulation (in words)” value is given as “no IFN-alpha cytokine production”.
Consider “C*C*G*A*G*C*C*G*C*C*U*A*C*C*C*C (CCGAGCCGCCUACCCC; listed as RNA, chemistry not fully specified) [SEQ ID NO: 47]”, for which the 50% effective concentration (EC50) (in general, the concentration giving half of the maximal effect) with Human PBMC (setting [1]) is no less than 1.5 µM. In addition, the EC50 with Human PBMC (setting [2]) was 0.566 µM. In addition, in the data set with Human PBMC (human PBMC), the IFN-alpha max activity is 271.9 pg/mL and the TNF-alpha max activity was 14265 pg/mL.
Take “G*U*C*G*U*C*G*U*C*G*U*C*G*U*C*G*U*C*G*U (GUCGUCGUCGUCGUCGUCGU; listed as RNA, chemistry not fully specified) [SEQ ID NO: 26]”: in the data set on Human PBMC, the IFN-alpha result was “+” and the TNF-alpha result is listed as “+”.
In the case of “C*C*G*A*G*C*C*G*C*U*U*A*A*C*C*C (CCGAGCCGCUUAACCC; listed as RNA, chemistry not fully specified) [SEQ ID NO: 49]”, the EC50 with Human PBMC (setting [1]) came to 0.375 µM. For the same substance, the concentration for a half-maximal effect (EC50) in the data set on Human PBMC (setting [2]) was 0.35 µM. In the data set on Human PBMC (human PBMC), this substance displayed an IFN-alpha max activity of 3367 pg/mL and a TNF-alpha max activity of 18039 pg/mL.
As to “C*C*G*A*G*C*C*G*A*G*C*U*C*A*C*C (CCGAGCCGAGCUCACC; listed as RNA, chemistry not fully specified) [SEQ ID NO: 81]”, the half-maximal effective concentration (EC50) in the data set with Human PBMC (setting [1]) is 0.667 µM. For the same substance, in the data set with Human PBMC (setting [2]), the EC50 stood at 0.802 µM. Moreover, in the data set with Human PBMC (human PBMC), the IFN-alpha max activity was found to be 842.9 pg/mL and the TNF-alpha max activity was found to be 14519 pg/mL.
The like results for “C*C*G*A*G*C*C*G*A*A*U*A*A*C*C*C (CCGAGCCGAAUAACCC; listed as RNA, chemistry not fully specified) [SEQ ID NO: 40]” were, in that order, no less than 1.5 µM, 0.352 µM, 235.3 pg/mL and 18083 pg/mL.
Turning to “C*C*G*A*G*C*C*G*A*U*G*U*U*A*C*C (CCGAGCCGAUGUUACC; listed as RNA, chemistry not fully specified) [SEQ ID NO: 66]”, the EC50 in the data set on Human PBMC (setting [1]) was found to be 0.558 µM; in the data set with Human PBMC (setting [2]), 0.051 µM. This substance also registered an IFN-alpha max activity in the data set on Human PBMC (human PBMC) of 1616 pg/mL. Further, in the data set with Human PBMC (human PBMC), the TNF-alpha max activity came to 43098 pg/mL.
The matching figures for “C*C*G*A*G*C*C*G*A*A*U*G*U*A*C*C (CCGAGCCGAAUGUACC; listed as RNA, chemistry not fully specified) [SEQ ID NO: 63]”: 1.84 µM, 0.309 µM, 177.3 pg/mL and 34219 pg/mL.
For “U*U*U*U*G*U*U*U*U*G*U*U*U*U*G*U*U*U*U*G (UUUUGUUUUGUUUUGUUUUG; listed as RNA, chemistry not fully specified) [SEQ ID NO: 23]”, in the data set with Human PBMC, the IFN-alpha entry is “+” and the TNF-alpha entry was “+”.
